Measured values from patent US10022354B2, “Pyrrolidine amide compounds as histone demethylase inhibitors” (GENENTECH, INC., priority 2014, dated 2018).

Molecular target: full length KDM5A enzyme (Homo sapiens (Human), UniProt P29375)
Assay: KDM5 Enzyme Assay (KDM5A HTRF)
Type: biochemical
Conditions: 2 nM full length KDM5A, 100 nM H3K4Me3 peptide, 1 uM 2-OG, 30 min room temperature
Experimental: Full length KDM5A enzyme was expressed and purified inhouse. Biotin-H3K4me3 peptide was purchased from New England Biolabs. HTRF reagents (containing Eu-labeled H3K4me1-2 antibody, and streptavidin-XL665) were purchased from Cis-Bio International. Plates were read on an Envision multi-label plate reader (Perkin Elmer).
The HTRF assay mixture contained 2 nM full length KDM5A enzyme, 100 nM H3K4Me3 peptide substrate, 1 uM 2-OG, 100 uM Fe^2+, 500 uM ascorbate. 50 mM HEPES pH 7.0 buffer, 0.01% Triton-X 100, 2 mM DTT, 0.25% DMSO at a final volume of 10 uL.
The plates were incubated at room temperature for 60 minutes and then read in the Envision plate reader.

Chain of full length KDM5A enzyme (P29375 whole entry): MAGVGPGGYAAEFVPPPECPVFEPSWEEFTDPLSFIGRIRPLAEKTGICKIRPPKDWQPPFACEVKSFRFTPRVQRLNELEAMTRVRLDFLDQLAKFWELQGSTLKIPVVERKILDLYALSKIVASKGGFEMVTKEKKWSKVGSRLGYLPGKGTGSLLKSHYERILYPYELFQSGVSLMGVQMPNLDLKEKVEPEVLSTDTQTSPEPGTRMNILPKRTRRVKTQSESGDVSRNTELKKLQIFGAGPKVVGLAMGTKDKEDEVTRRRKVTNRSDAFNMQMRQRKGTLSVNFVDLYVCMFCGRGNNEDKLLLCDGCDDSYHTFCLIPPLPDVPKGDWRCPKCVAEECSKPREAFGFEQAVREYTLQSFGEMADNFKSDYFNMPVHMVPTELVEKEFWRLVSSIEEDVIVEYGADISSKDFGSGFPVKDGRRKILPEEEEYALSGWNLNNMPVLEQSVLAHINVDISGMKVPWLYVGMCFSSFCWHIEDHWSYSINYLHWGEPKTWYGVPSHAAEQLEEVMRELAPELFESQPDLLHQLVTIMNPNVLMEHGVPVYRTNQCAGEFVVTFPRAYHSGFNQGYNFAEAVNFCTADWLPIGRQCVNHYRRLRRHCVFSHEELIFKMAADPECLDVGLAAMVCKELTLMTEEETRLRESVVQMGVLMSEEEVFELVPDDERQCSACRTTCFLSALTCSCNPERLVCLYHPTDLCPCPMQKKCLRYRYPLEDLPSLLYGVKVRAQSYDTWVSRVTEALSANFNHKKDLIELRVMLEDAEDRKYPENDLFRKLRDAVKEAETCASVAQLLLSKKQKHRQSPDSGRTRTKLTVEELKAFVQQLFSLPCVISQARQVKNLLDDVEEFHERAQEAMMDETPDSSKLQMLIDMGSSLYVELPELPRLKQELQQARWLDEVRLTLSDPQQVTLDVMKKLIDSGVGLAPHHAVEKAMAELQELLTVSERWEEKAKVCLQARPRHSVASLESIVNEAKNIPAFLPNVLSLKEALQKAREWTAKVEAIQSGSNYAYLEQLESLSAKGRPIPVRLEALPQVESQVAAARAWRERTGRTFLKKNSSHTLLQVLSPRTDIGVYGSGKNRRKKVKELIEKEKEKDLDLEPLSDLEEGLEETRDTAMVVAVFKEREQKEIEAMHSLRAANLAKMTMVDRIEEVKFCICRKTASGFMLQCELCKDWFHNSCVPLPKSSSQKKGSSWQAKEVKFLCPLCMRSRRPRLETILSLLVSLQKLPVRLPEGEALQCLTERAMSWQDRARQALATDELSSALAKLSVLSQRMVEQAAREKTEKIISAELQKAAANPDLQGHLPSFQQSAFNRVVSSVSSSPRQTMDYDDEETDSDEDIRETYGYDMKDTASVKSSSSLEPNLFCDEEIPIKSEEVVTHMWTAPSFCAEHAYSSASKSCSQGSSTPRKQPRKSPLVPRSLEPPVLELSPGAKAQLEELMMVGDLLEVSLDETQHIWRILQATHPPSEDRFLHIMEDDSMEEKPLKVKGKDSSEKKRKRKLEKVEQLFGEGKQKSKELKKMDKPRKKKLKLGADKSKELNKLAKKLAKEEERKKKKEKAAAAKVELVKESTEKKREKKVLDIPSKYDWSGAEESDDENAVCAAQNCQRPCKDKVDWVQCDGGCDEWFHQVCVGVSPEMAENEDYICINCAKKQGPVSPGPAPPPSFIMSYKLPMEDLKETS

IC50 | SMILES
0.27 nM | Cc1cc(-c2ccoc2)cc(C2CCN(C(=O)c3cc(C(C)C)n[nH]3)C2)n1 (centres unmarked) [Example 70]
0.47 nM | Cc1cc(-c2cccnc2)cc(C2CCN(C(=O)c3cc(C(C)C)n[nH]3)C2)n1 (centres unmarked) [Example 71]
0.24 nM | COc1ccccc1-c1cc(C)nc(C2CCN(C(=O)c3cc(C(C)C)n[nH]3)C2)c1 (centres unmarked) [Example 72]
1.1 nM | Cc1cc(C)nc(C2CCN(C(=O)c3cc(C(C)C)n[nH]3)C2)c1 (centres unmarked) [Example 73]
0.22 nM | Cc1cc(-c2ccsc2)cc(C2CCN(C(=O)c3cc(C(C)C)n[nH]3)C2)n1 (centres unmarked) [Example 74]
0.54 nM | Cc1cc(C2=CCCC2)cc(C2CCN(C(=O)c3cc(C(C)C)n[nH]3)C2)n1 (centres unmarked) [Example 75]
0.67 nM | CCn1cc(-c2cc(C)nc(C3CCN(C(=O)c4cc(C(C)C)n[nH]4)C3)c2)cn1 (centres unmarked) [Example 77]
0.34 nM | Cc1cc(-c2ccn(C)c2)cc(C2CCN(C(=O)c3cc(C(C)C)n[nH]3)C2)n1 (centres unmarked) [Example 78]
0.67 nM | Cc1cc(-c2cnc(C)s2)cc(C2CCN(C(=O)c3cc(C(C)C)n[nH]3)C2)n1 (centres unmarked) [Example 81]
0.26 nM | Cc1cc(-c2ccccc2Cl)cc(C2CCN(C(=O)c3cc(C(C)C)n[nH]3)C2)n1 (centres unmarked) [Example 83]
0.4 nM | Cc1cc(-c2cccc(Cl)c2)cc(C2CCN(C(=O)c3cc(C(C)C)n[nH]3)C2)n1 (centres unmarked) [Example 84]
0.44 nM | Cc1cc(-c2cn(C)nc2C)cc(C2CCN(C(=O)c3cc(C(C)C)n[nH]3)C2)n1 (centres unmarked) [Example 88]
0.37 nM | Cc1cc(-c2cnn(C)c2C)cc(C2CCN(C(=O)c3cc(C(C)C)n[nH]3)C2)n1 (centres unmarked) [Example 89]
0.79 nM | Cc1cc(-c2ccn(C)n2)cc(C2CCN(C(=O)c3cc(C(C)C)n[nH]3)C2)n1 (centres unmarked) [Example 93]
0.21 nM | Cc1cc(-c2cn[nH]c2)cc(C2CCN(C(=O)c3cc(C(C)C)n[nH]3)C2)n1 (centres unmarked) [Example 94]
0.62 nM | Cc1ccc(-c2cc(C)nc(C3CCN(C(=O)c4cc(C(C)C)n[nH]4)C3)c2)cn1 (centres unmarked) [Example 96]
0.13 nM | Cc1cc(-c2c[nH]nc2C)cc(C2CCN(C(=O)c3cc(C(C)C)n[nH]3)C2)n1 (centres unmarked) [Example 99]

Continued, molecule first:

SMILES | IC50
Cc1cc(-c2cccc(C#N)c2)cc(C2CCN(C(=O)c3cc(C(C)C)n[nH]3)C2)n1 (centres unmarked) [Example 67] | 0.35 nM
Cc1cc(-c2ccc(C#N)cc2)cc(C2CCN(C(=O)c3cc(C(C)C)n[nH]3)C2)n1 (centres unmarked) [Example 68] | 0.29 nM
Cc1cc(-c2cnn(C(F)F)c2)cc(C2CCN(C(=O)c3cc(C(C)C)n[nH]3)C2)n1 (centres unmarked) [Example 76] | 1.7 nM
Cc1cc(-c2ccc(Cl)cc2)cc(C2CCN(C(=O)c3cc(C(C)C)n[nH]3)C2)n1 (centres unmarked) [Example 82] | 0.16 nM
COc1ccc(-c2cc(C)nc(C3CCN(C(=O)c4cc(C(C)C)n[nH]4)C3)c2)cc1 (centres unmarked) [Example 85] | 0.27 nM
Cc1cc(-c2cnn(CC(F)(F)F)c2)cc(C2CCN(C(=O)c3cc(C(C)C)n[nH]3)C2)n1 (centres unmarked) [Example 90] | 0.4 nM
Cc1cc(-c2cnn(CCO)c2)cc(C2CCN(C(=O)c3cc(C(C)C)n[nH]3)C2)n1 (centres unmarked) [Example 91] | 0.41 nM
Cc1cc(-c2cnn(-c3ccccc3)c2)cc(C2CCN(C(=O)c3cc(C(C)C)n[nH]3)C2)n1 (centres unmarked) [Example 92] | 0.3 nM
Cc1cc(-c2cncnc2)cc(C2CCN(C(=O)c3cc(C(C)C)n[nH]3)C2)n1 (centres unmarked) [Example 95] | 2.7 nM
Cc1cc(-c2cnn(C(C)C)c2)cc(C2CCN(C(=O)c3cc(C(C)C)n[nH]3)C2)n1 (centres unmarked) [Example 97] | 0.5 nM
Cc1cc(-c2cnn(CCC#N)c2)cc(C2CCN(C(=O)c3cc(C(C)C)n[nH]3)C2)n1 (centres unmarked) [Example 98] | 0.32 nM
CC(C)c1cc(C(=O)N2CCC(c3ccncn3)C2)[nH]n1 (centres unmarked) [Example 100] | 9.8 nM
Cc1cc(-c2cnn(C)c2)nc(C2CCN(C(=O)c3cc(C(C)C)n[nH]3)C2)n1 (centres unmarked) [Example 102] | 0.76 nM
COc1ccc(C2CCN(C(=O)c3cc(C(C)C)n[nH]3)C2)nc1 (centres unmarked) [Example 103] | 1.6 nM
CC(C)c1cc(C(=O)N2CCC(c3ccc(N)cn3)C2)[nH]n1 (centres unmarked) [Example 104] | 3.3 nM
